Assay results published in ChEMBL document CHEMBL1130458, “Inhibition of carboxypeptidase a by N-(4-t-Butylbenzoyl)-2-hydroxy-1-naphthaldehyde hydrazone” (Bioorg Med Chem Lett, 1997).

Assays:
[1] = target: T1, Angiotensin-converting enzyme (Oryctolagus cuniculus) (UniProt P12822); assay: Percentage inhibition of angiotensin converting enzyme (rabbit lung) by the compound required to inhibit at 63 uM was evaluated
T1 sequence (whole entry): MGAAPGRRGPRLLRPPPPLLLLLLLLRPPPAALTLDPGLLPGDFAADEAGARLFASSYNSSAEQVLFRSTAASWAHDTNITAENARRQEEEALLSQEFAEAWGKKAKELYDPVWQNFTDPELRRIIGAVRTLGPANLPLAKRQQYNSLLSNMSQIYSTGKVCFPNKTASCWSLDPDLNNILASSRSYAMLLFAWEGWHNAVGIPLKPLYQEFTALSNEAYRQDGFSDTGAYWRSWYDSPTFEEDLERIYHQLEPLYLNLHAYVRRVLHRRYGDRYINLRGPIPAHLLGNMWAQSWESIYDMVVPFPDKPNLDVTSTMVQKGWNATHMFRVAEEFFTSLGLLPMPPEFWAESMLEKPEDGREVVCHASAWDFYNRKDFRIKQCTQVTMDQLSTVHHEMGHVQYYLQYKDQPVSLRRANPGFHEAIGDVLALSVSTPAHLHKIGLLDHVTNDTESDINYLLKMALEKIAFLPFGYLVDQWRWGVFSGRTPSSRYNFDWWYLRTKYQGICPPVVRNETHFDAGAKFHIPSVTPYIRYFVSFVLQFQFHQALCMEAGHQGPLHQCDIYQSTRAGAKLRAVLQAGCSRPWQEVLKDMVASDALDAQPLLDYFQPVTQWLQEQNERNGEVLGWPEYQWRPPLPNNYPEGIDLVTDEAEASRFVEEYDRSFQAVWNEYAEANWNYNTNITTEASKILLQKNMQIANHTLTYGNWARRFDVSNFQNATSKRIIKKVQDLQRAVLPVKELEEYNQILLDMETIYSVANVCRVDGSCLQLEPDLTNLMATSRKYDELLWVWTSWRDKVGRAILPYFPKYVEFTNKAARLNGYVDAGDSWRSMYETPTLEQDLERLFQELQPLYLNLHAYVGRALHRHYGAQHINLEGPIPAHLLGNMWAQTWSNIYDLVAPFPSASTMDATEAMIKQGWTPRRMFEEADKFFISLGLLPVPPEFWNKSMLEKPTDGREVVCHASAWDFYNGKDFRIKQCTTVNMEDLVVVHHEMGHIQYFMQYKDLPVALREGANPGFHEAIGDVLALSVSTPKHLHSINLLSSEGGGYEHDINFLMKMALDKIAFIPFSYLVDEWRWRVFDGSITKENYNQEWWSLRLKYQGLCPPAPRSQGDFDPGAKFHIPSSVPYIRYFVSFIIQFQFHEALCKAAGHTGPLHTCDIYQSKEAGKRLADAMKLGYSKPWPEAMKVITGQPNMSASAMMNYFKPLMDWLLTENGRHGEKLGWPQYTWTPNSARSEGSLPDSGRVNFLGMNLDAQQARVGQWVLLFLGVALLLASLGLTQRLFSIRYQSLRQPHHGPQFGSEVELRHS

[2] = target: T2, Carboxypeptidase A1 (Bos taurus) (UniProt P00730); assay: Percentage inhibition of carboxypeptidase A (CPA, bovine, Type I) enzyme by the compound required to inhibit at 63 uM was evaluated
T2 sequence (whole entry): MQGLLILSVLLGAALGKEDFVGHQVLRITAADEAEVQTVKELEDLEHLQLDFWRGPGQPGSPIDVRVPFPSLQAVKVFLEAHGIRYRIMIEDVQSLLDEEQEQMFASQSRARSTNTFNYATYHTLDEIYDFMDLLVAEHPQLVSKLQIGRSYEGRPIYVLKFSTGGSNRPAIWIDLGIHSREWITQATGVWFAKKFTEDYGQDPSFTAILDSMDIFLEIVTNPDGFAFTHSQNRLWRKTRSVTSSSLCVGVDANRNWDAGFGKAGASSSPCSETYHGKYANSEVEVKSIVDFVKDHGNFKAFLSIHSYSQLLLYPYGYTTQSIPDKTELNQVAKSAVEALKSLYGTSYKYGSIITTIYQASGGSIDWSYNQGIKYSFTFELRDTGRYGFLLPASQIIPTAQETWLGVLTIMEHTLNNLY

Carboxypeptidase A1 = target: T3, Carboxypeptidase A1 (Bos taurus, UniProt P00730); assay: Inhibitory concentration required to inhibit carboxypeptidase A (CPA, bovine, Type I) was evaluated
T3 sequence (P00730 whole entry): T2 sequence (whole entry)

Row | SMILES | inhibition [1] [%] | inhibition [2] [%] | IC50 (Carboxypeptidase A1) [µM]
1 | CC(C)(C)c1ccc(C(=O)N/N=C/c2cccc3ccccc23)cc1 | 2 | 17 | 
2 | CC(C)(C)c1ccc(C(=O)N/N=C/c2ccccc2O)cc1 | 3 | 33 | 
3 | CC(C)(C)c1ccc(C(=O)N/N=C/c2c(O)ccc3ccccc23)cc1 | 5 |  | 29
